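Assay format: 96-well plates, 48-hour exposure. GI50: concentration for 50% inhibition of growth.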 The source made the active and inactive calls. Rule as the data show it: active = GI50 up to about 1.1 µM and inactive = higher.
How the values were obtained:
Experiment in all cases: inhibition of tumour cell growth, NCI panel, 48 h
SN12C = system: SN12C
HOP-62 = system: HOP-62
HCT-15 = system: HCT-15
K562 = system: K562
OVCAR-5 = system: OVCAR-5
NCI-H460 = system: NCI-H460
EKVX = system: EKVX
MCF7 = system: MCF7
HCC 2998 = system: HCC 2998
KM12 = system: KM12
A549 = system: A549
UO-31 = system: UO-31
MOLT-4 = system: MOLT-4
A498 = system: A498
HCT-116 = system: HCT-116
MDA-N = system: MDA-N
LOX IMVI = system: LOX IMVI
SK-OV-3 = system: SK-OV-3
DU-145 = system: DU-145
SF-295 = system: SF-295
OVCAR-3 = system: OVCAR-3
NCI/ADR-RES = system: NCI/ADR-RES
T47D = system: T47D
NCI-H23 = system: NCI-H23
NCI-H226 = system: NCI-H226
SK-MEL-28 = system: SK-MEL-28
SK-MEL-5 = system: SK-MEL-5
MDA-MB-231 = system: MDA-MB-231
OVCAR-8 = system: OVCAR-8
MDA-MB-435 = system: MDA-MB-435
BT-549 = system: BT-549
CCRF-CEM = system: CCRF-CEM
Hs-578T = system: Hs-578T
UACC-62 = system: UACC-62
IGROV-1 = system: IGROV-1
HOP-92 = system: HOP-92
SK-MEL-2 = system: SK-MEL-2
ACHN = system: ACHN
UACC-257 = system: UACC-257
SF-539 = system: SF-539
SNB-19 = system: SNB-19
M14 = system: M14
CAKI-1 = system: CAKI-1
Malme-3M = system: Malme-3M
COLO 205 = system: COLO 205
U-251 = system: U-251
SF-268 = system: SF-268
786-0 = system: 786-0
RPMI-8226 = system: RPMI-8226
SR = system: SR
OVCAR-4 = system: OVCAR-4
PC-3 = system: PC-3
RXF 393 = system: RXF 393
HT-29 = system: HT-29
HL-60 = system: HL-60
TK-10 = system: TK-10
SW-620 = system: SW-620
NCI-H522 = system: NCI-H522
SNB-75 = system: SNB-75

## CC(=O)O[C@H]1CCC2[C@@H]3CCC4NC(=O)C(C#N)C[C@]4(C)C3CC[C@@]21C (stereo partly specified)
SN12C
  GI50: > 10 µM (inactive)
HOP-62
  GI50: > 10 µM (inactive)
HCT-15
  GI50: > 10 µM
K562
  GI50: > 10 µM (inactive)
OVCAR-5
  GI50: > 10 µM (inactive)
NCI-H460
  GI50: > 10 µM (inactive)
EKVX
  GI50: 8.17 µM (inactive)
MCF7
  GI50: > 10 µM (inactive)
HCC 2998
  GI50: > 10 µM (inactive)
KM12
  GI50: > 10 µM (inactive)
A549
  GI50: > 10 µM (inactive)
UO-31
  GI50: > 10 µM (inactive)
MOLT-4
  GI50: > 10 µM (inactive)
A498
  GI50: > 10 µM (inactive)
HCT-116
  GI50: > 10 µM (inactive)
MDA-N
  GI50: > 10 µM (inactive)
LOX IMVI
  GI50: > 10 µM (inactive)
SK-OV-3
  GI50: > 10 µM (inactive)
DU-145
  GI50: > 10 µM (inactive)
SF-295
  GI50: > 10 µM (inactive)
OVCAR-3
  GI50: > 10 µM (inactive)
NCI/ADR-RES
  GI50: > 10 µM (inactive)
T47D
  GI50: > 10 µM (inactive)
NCI-H23
  GI50: > 10 µM (inactive)
NCI-H226
  GI50: > 10 µM (inactive)
SK-MEL-28
  GI50: > 10 µM (inactive)
SK-MEL-5
  GI50: > 10 µM (inactive)
MDA-MB-231
  GI50: > 10 µM (inactive)
OVCAR-8
  GI50: > 10 µM (inactive)
MDA-MB-435
  GI50: > 10 µM (inactive)
BT-549
  GI50: > 10 µM (inactive)
CCRF-CEM
  GI50: > 10 µM (inactive)
Hs-578T
  GI50: 3.96 µM (inactive)
UACC-62
  GI50: > 10 µM (inactive)
IGROV-1
  GI50: > 10 µM (inactive)
HOP-92
  GI50: > 10 µM (inactive)
SK-MEL-2
  GI50: > 10 µM (inactive)
ACHN
  GI50: > 10 µM (inactive)
UACC-257
  GI50: > 10 µM (inactive)
SF-539
  GI50: > 10 µM (inactive)
SNB-19
  GI50: > 10 µM (inactive)
M14
  GI50: > 10 µM (inactive)
CAKI-1
  GI50: > 10 µM (inactive)
Malme-3M
  GI50: > 10 µM (inactive)
COLO 205
  GI50: > 10 µM (inactive)
U-251
  GI50: > 10 µM (inactive)
SF-268
  GI50: > 10 µM (inactive)
786-0
  GI50: > 10 µM (inactive)
RPMI-8226
  GI50: > 10 µM (inactive)
SR
  GI50: > 10 µM (inactive)
OVCAR-4
  GI50: > 10 µM (inactive)
PC-3
  GI50: > 10 µM (inactive)
RXF 393
  GI50: > 10 µM (inactive)
HT-29
  GI50: > 10 µM (inactive)
HL-60
  GI50: > 10 µM (inactive)
TK-10
  GI50: > 10 µM (inactive)
SW-620
  GI50: > 10 µM (inactive)

## CCN(CC)C(=S)Oc1cc2oc(=O)cc(C)c2cc1Cl
SN12C
  GI50: > 100 µM (inactive)
HOP-62
  GI50: 54 µM (inactive)
HCT-15
  GI50: > 100 µM
K562
  GI50: > 100 µM (inactive)
OVCAR-5
  GI50: > 100 µM (inactive)
NCI-H460
  GI50: > 100 µM (inactive)
EKVX
  GI50: > 100 µM (inactive)
MCF7
  GI50: 23.9 µM (inactive)
HCC 2998
  GI50: 52.7 µM (inactive)
KM12
  GI50: > 100 µM (inactive)
A549
  GI50: > 100 µM (inactive)
UO-31
  GI50: > 100 µM (inactive)
MOLT-4
  GI50: > 100 µM (inactive)
A498
  GI50: > 100 µM (inactive)
HCT-116
  GI50: > 100 µM (inactive)
MDA-N
  GI50: > 100 µM (inactive)
LOX IMVI
  GI50: 68.7 µM (inactive)
DU-145
  GI50: > 100 µM (inactive)
SF-295
  GI50: 66.7 µM (inactive)
OVCAR-3
  GI50: > 100 µM (inactive)
NCI/ADR-RES
  GI50: > 100 µM (inactive)
T47D
  GI50: 54 µM (inactive)
NCI-H23
  GI50: > 100 µM (inactive)
NCI-H226
  GI50: > 100 µM (inactive)
SK-MEL-28
  GI50: > 100 µM (inactive)
SK-MEL-5
  GI50: > 100 µM (inactive)
MDA-MB-231
  GI50: > 100 µM (inactive)
OVCAR-8
  GI50: > 100 µM (inactive)
MDA-MB-435
  GI50: > 100 µM (inactive)
BT-549
  GI50: > 100 µM (inactive)
CCRF-CEM
  GI50: > 100 µM (inactive)
Hs-578T
  GI50: 57.7 µM (inactive)
UACC-62
  GI50: 26.9 µM (inactive)
IGROV-1
  GI50: > 100 µM (inactive)
HOP-92
  GI50: 56 µM (inactive)
SK-MEL-2
  GI50: 8.51 µM (inactive)
NCI-H522
  GI50: 80.4 µM (inactive)
ACHN
  GI50: > 100 µM (inactive)
UACC-257
  GI50: > 100 µM (inactive)
SF-539
  GI50: > 100 µM (inactive)
SNB-19
  GI50: 66.5 µM (inactive)
M14
  GI50: > 100 µM (inactive)
CAKI-1
  GI50: > 100 µM (inactive)
COLO 205
  GI50: > 100 µM (inactive)
U-251
  GI50: 42.2 µM (inactive)
SF-268
  GI50: 36.1 µM (inactive)
786-0
  GI50: > 100 µM (inactive)
RPMI-8226
  GI50: > 100 µM (inactive)
SR
  GI50: > 100 µM (inactive)
OVCAR-4
  GI50: > 100 µM (inactive)
PC-3
  GI50: > 100 µM (inactive)
RXF 393
  GI50: 25.5 µM (inactive)
HT-29
  GI50: > 100 µM (inactive)
HL-60
  GI50: > 100 µM (inactive)
TK-10
  GI50: > 100 µM (inactive)
SW-620
  GI50: > 100 µM (inactive)

## CCNC(C)(C)C(SS)c1ccc(Br)cc1 (stereo unspecified)
SN12C
  GI50: 32.6 µM (inactive)
HOP-62
  GI50: 63.1 µM (inactive)
HCT-15
  GI50: > 100 µM
K562
  GI50: 36.1 µM (inactive)
OVCAR-5
  GI50: > 100 µM (inactive)
NCI-H460
  GI50: 31.1 µM (inactive)
EKVX
  GI50: > 100 µM (inactive)
MCF7
  GI50: 39.4 µM (inactive)
SNB-75
  GI50: > 100 µM (inactive)
KM12
  GI50: > 100 µM (inactive)
A549
  GI50: > 100 µM (inactive)
UO-31
  GI50: 79.1 µM (inactive)
MOLT-4
  GI50: 21.1 µM (inactive)
A498
  GI50: > 100 µM (inactive)
HCT-116
  GI50: 29.6 µM (inactive)
MDA-N
  GI50: 45.6 µM (inactive)
LOX IMVI
  GI50: 26.1 µM (inactive)
SK-OV-3
  GI50: > 100 µM (inactive)
DU-145
  GI50: > 100 µM (inactive)
SF-295
  GI50: > 100 µM (inactive)
OVCAR-3
  GI50: 46.6 µM (inactive)
NCI/ADR-RES
  GI50: > 100 µM (inactive)
T47D
  GI50: 24 µM (inactive)
NCI-H23
  GI50: > 100 µM (inactive)
NCI-H226
  GI50: > 100 µM (inactive)
SK-MEL-28
  GI50: > 100 µM (inactive)
SK-MEL-5
  GI50: 91.4 µM (inactive)
MDA-MB-231
  GI50: > 100 µM (inactive)
OVCAR-8
  GI50: > 100 µM (inactive)
MDA-MB-435
  GI50: 34.8 µM (inactive)
BT-549
  GI50: > 100 µM (inactive)
CCRF-CEM
  GI50: 20.3 µM (inactive)
Hs-578T
  GI50: > 100 µM (inactive)
UACC-62
  GI50: 88.9 µM (inactive)
IGROV-1
  GI50: > 100 µM (inactive)
HOP-92
  GI50: > 100 µM (inactive)
SK-MEL-2
  GI50: > 100 µM (inactive)
NCI-H522
  GI50: 18.4 µM (inactive)
ACHN
  GI50: > 100 µM (inactive)
UACC-257
  GI50: 28.3 µM (inactive)
SF-539
  GI50: 38 µM (inactive)
SNB-19
  GI50: > 100 µM (inactive)
M14
  GI50: 59.2 µM (inactive)
CAKI-1
  GI50: 78 µM (inactive)
Malme-3M
  GI50: > 100 µM (inactive)
COLO 205
  GI50: 62.1 µM (inactive)
U-251
  GI50: 44.3 µM (inactive)
SF-268
  GI50: 60.8 µM (inactive)
786-0
  GI50: 21.3 µM (inactive)
RPMI-8226
  GI50: 27.8 µM (inactive)
SR
  GI50: 30.4 µM (inactive)
OVCAR-4
  GI50: 44.5 µM (inactive)
PC-3
  GI50: 60.5 µM (inactive)
RXF 393
  GI50: 46 µM (inactive)
HT-29
  GI50: 25.8 µM (inactive)
HL-60
  GI50: 21.9 µM (inactive)
TK-10
  GI50: 53.3 µM (inactive)
SW-620
  GI50: 22.4 µM (inactive)

— ChEMBL document CHEMBL1201862, “PubChem BioAssay data set” (2004)
